In patent publication US20120142550A1, “Vanin 1 as a Peripheral Blood Oxidative Stress Sensor” (priority 2010, published 2012):

Tested on: PBMC
Test: GSH/GSSG ratio by LC-MS/MS in treated PBMC samples
Format: cell-based, human
Settings: 4 PBMC samples, 12 hours
Method: The levels of glutathione (GSH, reduced form) and glutathione disulfide (GSSG, oxidized form) in the whole blood of each subject were determined using a liquid chromatography-tandem mass spectrometry (LC-MS/MS)-based procedure modified from that of Norris et al. (J Chromatogr B Biomed Sci Appl. 2001; 762 (I):17-23) In brief, whole blood was mixed in a 1:4 (v:v) ratio with solution containing n-ethylmaleimide (NEM), sulfosalicylic acid, EDTA and methanol. Supernatants were diluted with stable-isotope internal standards (GSH-^13C, ^15N-NEM and GSSG-^13C, ^15N) and analyzed by LC-MS/MS, using an API 3000 Tandem Mass Spectrometer with Turbulon Ion Spray source, Shimadzu solvent delivery system and LEAP Technology autosampler. GSH (as GSH-NEM) and GSSG were monitored by transitions m/z 433→304 and m/z […] respectively, and data was acquired using Analyst 1.4.
Significance analysis of microarrays (SAM) was conducted for analysis of microarray data to identify differentially expressed genes. The Mann-Whitney test was used in the analysis of real-time PCR validation data. Unpaired t-test was conducted for the comparison of glutathione levels in ITP patients and controls. Paired t-test was carried out for the analysis of differences in GSH/GSSG ratios in cells with or without LPS or sodium arsenite treatments. […]

| Compound | GSH/GSSG ratio compared with untreated cells (LPS 10 ng/ml, p=0.04) | GSH/GSSG ratio compared with untreated cells (sodium arsenite 5 μM, p=0.01) |
| --- | --- | --- |
| Lipopolysaccharide [LPS] | statistically significant decrease | – |
| O=[As]O [sodium arsenite] | – | statistically significant decrease |
